The record followed here is PubChem BioAssay AID2141 (Sanford-Burnham Center for Chemical Genomics, 2009).

The source made the active and inactive calls. The rule behind the calls is not given here. Where only a bound is given, the exact number is not on record here.

The assay concerns the target E3 ubiquitin-protein ligase SIAH1 (Homo sapiens) (UniProt Q8IUQ4). The assay is described as follows: Siah-1 binding antagonists, dose response, biochemical, TR-FRET (AID 2141). Conditions: TR-FRET biochemical assay.
For `CCOC(=O)C1(C)C=C(Nc2ccc(O)cc2)C(=O)N1c1ccc(O)cc1` (stereo not drawn), the IC50 result is “inactive”.
Turning to `CCC(C)[C@H](NC(=O)N1CCn2c1nc1ccccc12)C(=O)NCCc1ccc(OC)c(OC)c1` (stereo partly drawn), the IC50 was > 200 µM (inactive).
The result for `Cc1ccc(OCCCN2CCOCC2)cc1` reads > 200 µM (inactive); that for `CN(Cc1c(C(=O)N/N=C/c2ccc(F)cc2)nnn1-c1nonc1N)C1CCCCC1`, > 200 µM (inactive); that for `CCC1=Nc2cc(C(=O)O)ccc2Sc2ccccc21`, “inactive”.
As for `COC(=O)C1CC(=O)N(c2ccc(OCc3ccccc3Cl)cc2)C1` (stereo not drawn), the IC50 is > 200 µM (inactive).
Take `CC(=O)c1ccc(S(=O)(=O)Nc2ccc(-c3ccc4nnc(C)n4n3)cc2)cc1`: the IC50 is 9.93 µM.
With `COc1cc(/C=C(\C#N)c2nc3ccccc3[nH]2)ccc1OC(=O)c1ccco1`, the IC50 was 6.22 µM.
In the case of `O=C(Nc1ccc(Oc2ccsc2C(=O)O)cc1)c1ccccc1F`, the IC50 entry was “inactive”.
Regarding `COC/C=C/C1=CC2=CC(=O)C(C)(OC(=O)c3ccco3)C(=O)C2=CO1` (stereo not drawn), the IC50 was 5.94 µM.
Regarding `COC(=O)c1ccc2c(c1)C(C)(C)C(/C=C/c1ccccc1O)=[N+]2C`, the IC50 was > 200 µM (inactive).
On to `COC(=O)c1cccc(Cn2c(Cl)c(/C=N/NC(=O)c3ccccc3Cl)sc2=O)c1`, for which the IC50 is 19 µM.
The result for `COc1cc(NS(=O)(=O)c2ccc(NC(=S)NC(=O)/C=C/c3ccc(F)cc3)cc2)ncn1` reads > 200 µM (inactive).
Regarding `C=CCn1c(NS(=O)(=O)c2ccccc2)c(S(=O)(=O)c2ccc(C)cc2)c2nc3ccccc3nc21`, the half-maximal inhibitory concentration (IC50) was less than 1.56 µM.
The result for `Cc1ccc(S(=O)(=O)N2CCC(=O)N(C(COCc3cccc(C)c3)Cc3ccccc3)CC2)cc1` (stereo not drawn) reads > 200 µM (inactive); that for `CCN(CC)CCOC(=O)c1ccc(N/C=C(/C#N)c2nc(-c3cc4ccccc4oc3=O)cs2)cc1`, > 200 µM (inactive).
`Cc1cc(Cl)ccc1NC(=O)CN1CCC(C(O)(c2ccccc2)c2ccccc2)CC1`: the IC50 is > 200 µM (inactive).
Regarding `COc1cc(/C=C2/SC(=S)N(Cc3ccccc3)C2=O)cc(Cl)c1O`, the IC50 is > 200 µM (inactive).
With `O=C(Nc1ccc(Cl)cc1)c1ccc(S(=O)(=O)N2CCOCC2)cc1`, the IC50 was > 200 µM (inactive).
Turning to `CCCCn1c(NS(=O)(=O)c2ccccc2)c(S(=O)(=O)c2ccc(C)cc2)c2nc3ccccc3nc21`, the IC50 was 1.6 µM.
The result for `COc1cccc(CCC(=O)N(C)C2CCCN(Cc3ccccc3F)C2)c1` (stereo not drawn) reads > 200 µM (inactive).
The result for `O=S(=O)(Nc1nc2ccccc2nc1Nc1ccc(N2CCOCC2)cc1)c1cc(Cl)ccc1Cl` reads > 200 µM (inactive).
On to `CC(C)(C)c1ccc(C(CC(=O)O)NC(=O)Cc2ccc(F)cc2)cc1` (stereo not drawn), for which the IC50 is 4.55 µM.
For the molecule `CCCCn1c(NS(=O)(=O)c2ccc(C)cc2)c(S(=O)(=O)c2ccccc2)c2nc3ccccc3nc21`, the IC50 is 3.41 µM.
Consider `O=c1ccc2c(-c3ccccc3)c3ccc(O)cc3oc-2c1`, for which the IC50 was > 200 µM (inactive).
Take `CN(C)CCOC(=O)CCc1ccccc1`: the IC50 was > 200 µM (inactive).
Regarding `CCOC(=O)C1=C(C)N=c2s/c(=C\c3ccc(OCC(=O)O)cc3)c(=O)n2C1c1ccc(Cl)cc1` (stereo not drawn), the IC50 was > 200 µM (inactive).
For `c1ccc(C(c2ccccc2)N2CCN(C(c3ccccn3)c3nnnn3C3CCCC3)CC2)cc1` (stereo not drawn), the IC50 is > 200 µM (inactive).
As for `CCOc1cc(/C=C(\C#N)C(=O)Nc2ccccc2C(=O)O)ccc1OC(=O)c1ccc(C)cc1`, the IC50 was > 200 µM (inactive).
As for `Cc1ccc2c(c1)N(CC(=O)NCCc1ccc(Cl)cc1)C(=O)c1cccnc1O2`, the IC50 was > 200 µM (inactive).
Regarding `CC(C)COc1ccc(-c2nn(-c3ccccc3)cc2/C=C2/SC(=S)N(CC(=O)O)C2=O)cc1`, the IC50 was 3.91 µM.
For `Nc1ccc(O)c2c1C(=O)c1ccccc1C2=O`, the IC50 was less than 1.56 µM.
In the case of `O=C(Nc1ccc(Br)cc1)c1ccc(N2C(=O)C3CC=CCC3C2=O)cc1` (stereo not drawn), the IC50 was 4.27 µM.
Consider `CCN(CC)c1ccc(/C=c2\sc3nnc(-c4ccccc4Cl)n3c2=O)cc1`, for which the IC50 is > 200 µM (inactive).
The result for `CC1(C)Cc2c(sc(/N=C/N3CCCCCC3)c2C#N)C(C)(C)N1` reads > 200 µM (inactive); that for `Cc1ccc(NC(=O)CCC(=O)NNC(=O)c2ccccc2[N+](=O)[O-])c(C)c1`, > 200 µM (inactive).
In the case of `O=C(Nc1ccccc1N1CCCCC1)c1ccc(-c2cccc(Cl)c2)o1`, the IC50 was > 200 µM (inactive).
As to `CC1=C(C#N)c2nc(N)c(C#N)c(C)c2/C1=C\c1ccc(-c2ccccc2C(=O)O)o1`, the IC50 is > 200 µM (inactive).
`C=CCc1cccc2cc(C(=O)Nc3ccc(CC(=O)O)cc3)c(=O)oc12`: the IC50 was 9.1 µM.
As for `O=c1[nH]n(-c2ccc([N+](=O)[O-])cc2)c(=O)c2ccccc12`, the IC50 is 11.2 µM.
For the molecule `CN1C(=O)NC(c2ccccc2[N+](=O)[O-])C2=C1CCCC2=O` (stereo not drawn), the IC50 was > 200 µM (inactive).
Take `COc1cc(CC(=O)NCc2ccc3c(c2)OCO3)cc(OC)c1OC`: the IC50 entry was “inactive”.
`CC(=O)Nc1ccc(N=Cc2c(O)c(C(=O)Nc3ccccc3)cc3ccccc23)cc1`: the IC50 was > 200 µM (inactive).
As for `O=C(/C=C/c1ccco1)OCc1nnc(-c2ccccc2)o1`, the IC50 was 4.37 µM.
Turning to `Cc1cc(C)c(C#N)c(Nc2ccccc2C)n1`, the IC50 was > 200 µM (inactive).
On to `COCCOC(=O)c1sc(=S)n(CCOC)c1N`, for which the IC50 was 10.6 µM.
The result for `O=S(=O)(O)c1cc(O)c2c(O)c(N=Nc3cc(Cl)ccc3O)c(S(=O)(=O)O)cc2c1` reads 2.14 µM.
For `CC1CCN(C(=O)C2CCC(C)(C(=O)O)C2(C)C)CC1` (stereo not drawn), the IC50 is > 200 µM (inactive).
As to `Fc1ccc(/C=N/NC(=S)Nc2cccnc2)cc1F`, the IC50 result is “inactive”.
Consider `Cc1ccc(S(=O)(=O)NN=C2C3CC4CC(C3)CC2C4)cc1[N+](=O)[O-]`, for which the IC50 is > 200 µM (inactive).
Turning to `O=C(O)c1ccc(/C=N/NC(=O)c2ccc(CN3c4cccc5cccc(c45)S3(=O)=O)cc2)cc1`, the IC50 is 18.3 µM.
In the case of `Cc1ccc(CNc2ccc(O)cc2)cc1`, the IC50 is 4.51 µM.
In the case of `Cc1ccc(C(=O)NC2CC3CCCC(C2)N3C(=O)NC2CCCCC2)cc1` (stereo not drawn), the IC50 is > 200 µM (inactive).
On to `O=S(=O)(Nc1cc2nc3ccccc3nc2n1Cc1ccccc1)c1ccc(Cl)cc1`, for which the IC50 is 6.05 µM.
The result for `CCOC(=O)/C(C#N)=c1/s/c(=C2\C=Cc3ccccc3N2CC)c(=O)n1CC` reads > 200 µM (inactive).
The result for `COCCn1nnnc1C(c1cc2ccc(OC)cc2[nH]c1=O)N1CCc2ccccc2C1` (stereo not drawn) reads 11.8 µM.
For `O=C(N/N=C/c1ccc(OC(=O)c2cccs2)cc1)c1cccc(F)c1`, the IC50 is 1.79 µM.
Take `O=C(CSc1ccc(Br)c2cccc(Cl)c12)Nc1ccc(S(=O)(=O)Nc2nccs2)cc1`: the IC50 is > 200 µM (inactive).
On to `Cc1coc2c(C)c3oc(=O)c(CCC(=O)N[C@@H](C)C(=O)N[C@@H](Cc4ccccc4)C(=O)O)c(C)c3cc12`, for which the half-inhibitory concentration (IC50) is 11.4 µM.
Take `O=C(Cn1cnc2scc(-c3ccccc3)c2c1=O)NCc1ccco1`: the IC50 is 7.29 µM.
As for `CSc1n[nH]c(NCc2ccc(Cl)cc2)n1`, the IC50 was > 200 µM (inactive).
Consider `CN(C)c1cccc2c(C=C(C#N)C#N)ccc(N(C)C)c12`, for which the IC50 result is “inactive”.
As to `O=C(Nc1cccc(Oc2ccc(C(=O)O)c(C(=O)O)c2)c1)c1ccc(-c2ccccc2)cc1`, the IC50 is 11.6 µM.
On to `CC[n+]1c(/C=C/N(C)c2ccccc2)sc2ccc(Cl)cc21`, for which the IC50 was > 200 µM (inactive).
The result for `CC1CCN(S(=O)(=O)c2nnc(NC(=O)c3cccc(Cl)c3)s2)CC1` reads > 200 µM (inactive); that for `O=C(N/N=C/c1cccc(Br)c1)c1ccc(Br)cc1`, 2.54 µM; that for `O=C(CCN1CCN(Cc2ccccc2)CC1)Nc1cccc(Cl)c1`, > 200 µM (inactive).
The result for `COc1ccc(C(C(=O)NCc2ccccc2)N(Cc2ccco2)C(=O)c2cnccn2)cc1` (stereo not drawn) reads > 200 µM (inactive); that for `Cc1c(C(=O)O)sc2nc(CSc3ncc(C(F)(F)F)cc3Cl)[nH]c(=O)c12`, 7.65 µM; that for `CC1CCCCC1NC(=O)CCS(=O)(=O)c1ccc2c(c1)NC(=O)CO2` (stereo not drawn), > 200 µM (inactive).
As for `CC(=O)c1ccc(NC(=O)CC2Nc3cccc4cccc(c34)NC2=O)cc1` (stereo not drawn), the IC50 is 8.51 µM.
Consider `S=c1[nH]nc(Cc2cccc3ccccc23)n1-c1ccccc1`, for which the IC50 was > 200 µM (inactive).
Consider `O=C(CCn1ccc2ccccc21)NC1CCCc2ccccc21` (stereo not drawn), for which the IC50 is > 200 µM (inactive).
Regarding `C[C@]12CCC3C(CC=C4C[C@@H](O)CC[C@@]43C)C1CCC2[C@]1(C)CCC(=O)O1` (stereo partly drawn), the IC50 is > 200 µM (inactive).
For the molecule `O=C(Nc1nc(-c2cc3ccccc3oc2=O)cs1)c1ccco1`, the IC50 is 2.39 µM.
Take `Cc1cc(C)n2ncc(C(=O)Nc3ccc4c(c3)OCO4)c2n1`: the IC50 result was “inactive”.
In the case of `O=c1[nH]c(-c2ccc(F)cc2)nc2c1sc(=S)n2-c1ccccc1`, the IC50 is > 200 µM (inactive).
Consider `CCN(CC)CCOC(=O)c1ccc(N/C=C(/C#N)c2nc(-c3ccc(OC)c(OC)c3)cs2)cc1`, for which the IC50 is less than 1.56 µM.
As for `CCn1c(O)c(C=Nc2ccc(N3CCOCC3)cc2)c(=O)n(CC)c1=S`, the IC50 is > 200 µM (inactive).
The result for `O=C(O)c1cc(Cl)c(Cl)cc1C(=O)Nc1cccc2cccnc12` reads 7.1 µM.
The result for `C=C(C)Cn1c(N2CCN(CC)CC2)nc2c1c(=O)[nH]c(=O)n2C` reads > 200 µM (inactive); that for `NS(=O)(=O)c1ccc(NS(=O)(=O)c2ccc(NC(=O)c3ccc(-c4ccccc4)cc3)cc2)cc1`, less than 1.56 µM; that for `O=C(O)CCCCN1C(=O)/C(=C\c2ccc(OCc3ccccc3)c(OCc3ccccc3)c2)SC1=S`, 4.03 µM.
